Results on 79 molecules are retold here after paper PMC12040169 (PLOS Biology, 2025).

For orientation: viability means a read-out of living cells in per cent, often relative to untreated cells.

The data set in a line: in vitro. The conditions noted are these: human, hela cells, % viability.

Regarding `CC#CC(=O)N1CCCC(Cc2ccc(F)cc2F)(C(=O)OCC)C1` (stereo not shown) [CBK307051], the viability at 28.5 h, 10 µM was found to be 111%. The figure for `O=C1NC2(CCCCC2)C(=O)N1c1cccc(Cl)c1` [CBK287969] is 94.3%; for `CC(=O)N(C)c1nc(-c2ccccc2)ccc1C(=O)NCc1ccco1` [CBK106334] it is 99.3%; for `COCCN1C(=O)/C(=C2/C(=O)N(CC(=O)Nc3ccccc3)c3ccccc32)SC1=S` [CBK264489] it is 91.3%.

Take `O=C(NCCCCNC(=O)c1scc(-c2ccccc2)c1C(=O)O)c1scc(-c2ccccc2)c1C(=O)O` [CBK296086]: the viability at 28.5 h, 10 µM is 107%. For the molecule `Cc1c(CN(C)CC(=O)Nc2cccc(C(F)(F)F)c2)cnn1C` [CBK304341], the viability at 28.5 h, 10 µM came to 85%. The same measure for `CCN(CC)C(=O)c1ccccc1NS(=O)(=O)c1ccc(C)cc1` [CBK045416]: 88.7%; for `CCC(C)NC(=O)C1=CCN(S(C)(=O)=O)C1` (stereo not shown) [CBK282861]: 101%. For the molecule `O=C(NC[C@H]1O[C@@H](CC(=O)N2CCc3ccccc32)[C@H](O)[C@@H]1O)C1CC1` [CBK288915], the viability at 28.5 h, 10 µM stood at 105%.

Consider `CCC(CC)C(=O)Nc1ccc([C@@H](O)[C@H]2COCC(=O)N2Cc2ccc(OC)cc2)cc1` [CBK289677], for which the viability at 28.5 h, 10 µM was determined as 102%. In the case of `CCC(O)Cn1nc(CCSC)nc1-c1cc(=O)n(C)c2ccccc12` (stereo not shown) [CBK306596], the viability at 28.5 h, 10 µM came to 83.6%.

In the case of `NC(=O)CN1CCCN(c2ccnc(OCCN3CCOCC3)n2)CC1` [CBK083804], the viability at 28.5 h, 10 µM is 89.9%. As to `COc1ccc(C(=O)N(C)Cc2cnn(C)c2)cc1Br` [CBK305149], the viability at 28.5 h, 10 µM is 84.8%. Consider `O=c1c2c3c(sc2nc(SCc2cc(O)[nH]n2)n1Cc1ccco1)CCC3` [CBK268301], for which the viability at 28.5 h, 10 µM was found to be 99.4%. The same measure for `COc1ccccc1Oc1ccc(C(F)(F)F)cc1[N+](=O)[O-]` [CBK002845]: 99%; for `NC(=O)c1ccc(NC(=O)c2sc3ccccc3c2Cl)cc1` [CBK262643]: 90.8%. The same measure for `CC(C)(C)C(=O)N1CCC2(CC1)Nc1cccnc1-n1cccc12` [CBK284507]: 95.6%; for `C/C(=N\Nc1nc(-c2ccccc2)cs1)c1ccccc1` [CBK262104]: 88.8%. The figure for `COc1ccc(Cl)cc1S(=O)(=O)NC(C)C(=O)O` (stereo not shown) [CBK270233] is 106%; for `CCn1cncc1CN(CCCn1ccnc1)CC1CC=CCC1` (stereo not shown) [CBK283220] it is 101%; for `Oc1ccc2ccccc2c1/C=N/Nc1nnn[nH]1` [CBK262028] it is 106%. In the case of `Nc1nc(SCc2ccc(Cl)cc2)nc2sc3c(c12)CCN(Cc1ccccc1)C3` [CBK263724], the viability at 28.5 h, 10 µM is 88.1%.

Regarding `O=C(COc1ccccc1)Nc1nn(Cc2ccc(S(=O)(=O)N3CCCC3)cc2)c2ccccc12` [CBK061594], the viability at 28.5 h, 10 µM was 58.6%. For the molecule `Cc1ccc(N(CC(=O)Nc2cc(Cl)ccc2C)S(C)(=O)=O)cc1` [CBK264030], the viability at 28.5 h, 10 µM was 92.9%. The figure for `CCc1c(C)nc2c(C(=O)NCCCN3CCCC3=O)cnn2c1C` [CBK162128] is 96.2%; for `COc1cncc(C(NC(=O)c2ccn3nnnc3c2)[C@H]2C[C@@H](O)C2)c1` (stereo partly shown) [CBK306686] it is 96.2%; for `O=C(NCc1cccc(C(F)(F)F)c1)N1CCCC(CO)C1` (stereo not shown) [CBK156033] it is 89.5%.

Take `O=C1c2cccc3cccc(c23)C(=O)N1CCN1CCN(S(=O)(=O)c2ccccc2[N+](=O)[O-])CC1` [CBK262530]: the viability at 28.5 h, 10 µM came out at 97.7%. Consider `CN(Cc1ccccc1)c1ncc(-c2ccc(N3CCOCC3)cc2)n2ccnc12` [CBK091275], for which the viability at 28.5 h, 10 µM worked out at 99.7%. For `CN(C)CCNC(=O)c1cccc(-c2cn3ccnc3c(NCc3ccccc3)n2)c1` [CBK066365], the viability at 28.5 h, 10 µM was 102%. The figure for `FC(F)(F)c1[nH]c2ncccc2c1CN1CCSCC1` [CBK283257] is 87.7%. In the case of `CC(C)Oc1ccc(C(=O)C2=C(O)C(=O)N(Cc3cccnc3)C2c2cccc([N+](=O)[O-])c2)cc1` (stereo not shown) [CBK264936], the viability at 28.5 h, 10 µM stood at 89.2%. Regarding `O=S(=O)(c1ccc(N2CCNCC2)cc1)n1ccc2ccc(Br)cc21` [CBK034034C], the viability at 28.5 h, 10 µM is 70.6%.

On to `CC1(C)C[C@H](NC(=O)c2cccs2)[C@@]2(CCC(=O)N3CCCC3)CC[C@](C)(O)C[C@@H]12` [CBK289042], for which the viability at 28.5 h, 10 µM stood at 122%.

With `CC(Sc1nc(N)cc(N)n1)C(=O)c1ccc(F)c(F)c1` (stereo not shown) [CBK296928], the viability at 28.5 h, 10 µM came to 94.7%. Consider `CCOc1ccc(-c2nnn(CC(N)=O)n2)cc1` [CBK068283], for which the viability at 28.5 h, 10 µM was 110%. As to `c1ccc(CCN2CCN(c3nccnc3OCC3COc4ccccc4O3)CC2)cc1` (stereo not shown) [CBK082794T], the viability at 28.5 h, 10 µM stood at 99.4%.

`Cn1c(CO)nnc1[C@H]1C[C@@H](NC(=O)COc2ccc(Cl)c(Cl)c2)C1` [CBK306667]: the viability at 28.5 h, 10 µM stood at 101%. The figure for `Fc1ccccc1-c1nccnc1NCc1cccs1` [CBK038088] is 106%; for `COc1cc(F)ccc1-c1cnc(N)c2ncccc12` [CBK067585] it is 81.4%. On to `Cc1ccccc1-c1cc(C(=O)N(C)C)c2cnn(C(C)C)c2n1` [CBK306245], for which the viability at 28.5 h, 10 µM was found to be 98.6%. Regarding `CC(=O)Nc1ccc2c(CSc3nnc(-c4ccco4)n3C)cc(=O)oc2c1` [CBK297534], the viability at 28.5 h, 10 µM worked out at 91.7%. The same measure for `COc1ccc(NC(=O)Cc2csc(NC(=O)c3ccco3)n2)c(OC)c1` [CBK287649]: 91.7%; for `Cc1cc(C)n(CCCNC(=O)Cn2cnc3sc(C)c(C)c3c2=O)n1` [CBK305852]: 76.2%.

Regarding `O=C(Nc1ccc(S(=O)(=O)N2CCCCC2)cc1)c1ccc(NS(=O)(=O)c2ccccc2)cc1` [CBK268348], the viability at 28.5 h, 10 µM was 88.3%.

In the case of `CC(C)(C)OC(=O)N1CCN(C(=O)N[C@@H](Cc2ccccc2)C(=O)O)CC1` [CBK286785], the viability at 28.5 h, 10 µM was determined as 113%.

As for `CN1CCN(c2n[nH]c(N)n2)CC1` [CBK026743], the viability at 28.5 h, 10 µM was 90.5%. In the case of `O=C(Cc1cccs1)N1CCC(O)(c2cccnc2)CC1` [CBK283501], the viability at 28.5 h, 10 µM was 104%. In the case of `Cc1ccc(C(=O)NCCNC(=O)CN2CCCC2)cc1` [CBK264103], the viability at 28.5 h, 10 µM worked out at 92.5%.

Turning to `Cc1cccc(S(=O)(=O)N2CCN(C)CC2)c1` [CBK097893], the viability at 28.5 h, 10 µM was 93.6%. As for `Cc1ncsc1CCOc1nc2cc(Cl)c(Cl)cc2nc1NC(C)C` [CBK115744], the viability at 28.5 h, 10 µM came out at 88.6%.

As for `Nc1c2c(nc3ccccc13)CCCC2O` (stereo not shown) [CBK008271F], the viability at 28.5 h, 10 µM stood at 95.7%.

Take `S=C(Nc1cccnc1)N[C@H]1CC[C@@]2(c3cccnc3)CCN(Cc3ccccc3)[C@H]2C1` [CBK028450]: the viability at 28.5 h, 10 µM came out at 94.8%. Regarding `CCOC(=O)c1sc(-c2c(Cl)cc(C(F)(F)F)cc2Cl)nc1O` [CBK078547], the viability at 28.5 h, 10 µM was 114%. For the molecule `N#C/C(=C\c1ccc(C(=O)O)cc1)C(=O)NCC1CCCO1` (stereo not shown) [CBK263228], the viability at 28.5 h, 10 µM turned out to be 95%. For `CC(C)c1nsc(NS(=O)(=O)c2cc(C(F)(F)F)cc(C(F)(F)F)c2)n1` [CBK051263], the viability at 28.5 h, 10 µM turned out to be 84.9%. The figure for `CCNC(=O)C1(Cc2ccccc2-c2ccncc2)CCOCC1` [CBK285216] is 100%; for `Cc1nc2c(c(=O)[nH]1)CCN(C(=O)c1cc(C3CC3)oc1C)C2` [CBK283753] it is 92.5%.

On to `CC(=O)NCCNC(=O)c1ccc(C)nc1N1CCOCC1` [CBK076453], for which the viability at 28.5 h, 10 µM was found to be 98.6%. With `COc1ccccc1NC(=O)C1C2NC(=S)NC1(C)Oc1c(OC)cccc12` (stereo not shown) [CBK269013], the viability at 28.5 h, 10 µM stood at 107%. For the molecule `CC(C)(C)NCC(O)c1ccc(O)c2c1C1CCC2CC1` (stereo not shown) [CBK013269C], the viability at 28.5 h, 10 µM was 93.9%. With `O=C1CC(N2CCC(c3nc4ccccc4o3)CC2)C(=O)N1Cc1cccs1` (stereo not shown) [CBK268735], the viability at 28.5 h, 10 µM worked out at 104%. The figure for `CC(Oc1ccccc1)C(=O)Nc1cccc(C#N)c1` (stereo not shown) [CBK264062] is 91%; for `COCc1cc(C)n(CC(=O)Nc2ccc(N3CCOCC3)cc2)c(=O)c1C#N` [CBK270190] it is 95.2%.

Take `Cc1cc(C)nc(NC(=O)C(C)Oc2ccc(Cl)cc2Cl)n1` (stereo not shown) [CBK265600]: the viability at 28.5 h, 10 µM amounted to 90.4%. The same measure for `Cc1cccc(C)c1OCC(=O)N1CCC(c2cc(C(=O)NC(C)C)c3ccccc3n2)C1` (stereo not shown) [CBK285916]: 112%. For the molecule `FC(F)(F)c1ccnc(Sc2cccc(Cl)c2)c1` [CBK115234], the viability at 28.5 h, 10 µM is 94.8%.

Consider `O=C(O)c1cccc(/N=C/c2ccc(/C=N/c3cccc(C(=O)O)c3)cc2)c1` [CBK261088], for which the viability at 28.5 h, 10 µM was 92.3%. As to `O=C(CC1CCCC1)NCCn1nc(-c2cccs2)ccc1=O` [CBK283841], the viability at 28.5 h, 10 µM amounted to 91.8%.

`CCc1ccc(C(=O)Nc2ccc(NC(C)=O)cc2C(F)(F)F)cc1` [CBK295202]: the viability at 28.5 h, 10 µM came to 84.1%.

Consider `Cc1nn(C)c(C)c1CN1CCOC(c2nc(C(C)(C)C)cs2)C1` (stereo not shown) [CBK304170], for which the viability at 28.5 h, 10 µM was determined as 85.6%. Consider `COc1ccccc1OC(=O)c1ccccc1Cl` [CBK090164], for which the viability at 28.5 h, 10 µM is 81.4%. Take `COc1cc2c(c(OC)c1OC)C(c1ccccc1C)CC(=O)N2` (stereo not shown) [CBK288205]: the viability at 28.5 h, 10 µM came to 109%. For the molecule `O=C(Nc1nc2ccccc2[nH]1)c1ccc(N2CCCS2(=O)=O)cc1` [CBK304582], the viability at 28.5 h, 10 µM is 98.6%. `COc1ccc(N(CC(O)CN2CCOCC2)S(=O)(=O)c2ccccc2)cc1` (stereo not shown) [CBK263589]: the viability at 28.5 h, 10 µM amounted to 84.5%. The same measure for `CC1CCCCN1C(=O)CN1C(=O)[C@H]2CCCN2C(=O)c2ccccc21` (stereo partly shown) [CBK286320]: 99.4%; for `Cc1nn(C)c(Cl)c1S(=O)(=O)Nc1cccc(-c2nnn[nH]2)c1` [CBK062127]: 96%; for `CC(=O)N1CCC2(C/C=C/C[C@H]3CN(CCO)CC[C@H]3NC(=O)CNC2=O)CC1` [CBK292139]: 92.8%.

As for `CC(=O)NC1CCN(c2nc(N(C)C)nc3c2CCN(C(C)=O)C3)CC1` [CBK307079], the viability at 28.5 h, 10 µM amounted to 85.6%.
